Measurements as given in US20220362396A1, “AMINO-PYRAZINECARBOXAMIDE COMPOUNDS, CONJUGATES, AND USES THEREOF” (Silverback Therapeutics, Inc., priority 2018, published 2022).
“Also recorded” adds a separate entry of the source.

Columns and labels:
[1] = system: TGFβ/SMAD Signaling Pathway SBE reporter cell line; test: TGFβ reporter assay, in vitro small molecule screening (luciferase); format: cell-based; settings: TGFβ stimulation, luminescence
Outline: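 SBE luciferase reporter cells (~0.5×10^6 cells/mL) preincubated with compound 5-6 h at 37 °C in 0.5% FBS MEM, then stimulated with TGFβ (12 ng/mL stock) for 18 h. Luminescence read after luciferase substrate; EC50 from curve fits.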

TGFBR2 = target: T1, TGFBR2 (Homo sapiens, UniProt P37173); test: TGFBR2 RBC assay (enzyme inhibition assay, Reaction Biology Corp.); format: biochemical
T1 construct: purchased Reaction Biology Corp
T1 sequence (P37173 23-567): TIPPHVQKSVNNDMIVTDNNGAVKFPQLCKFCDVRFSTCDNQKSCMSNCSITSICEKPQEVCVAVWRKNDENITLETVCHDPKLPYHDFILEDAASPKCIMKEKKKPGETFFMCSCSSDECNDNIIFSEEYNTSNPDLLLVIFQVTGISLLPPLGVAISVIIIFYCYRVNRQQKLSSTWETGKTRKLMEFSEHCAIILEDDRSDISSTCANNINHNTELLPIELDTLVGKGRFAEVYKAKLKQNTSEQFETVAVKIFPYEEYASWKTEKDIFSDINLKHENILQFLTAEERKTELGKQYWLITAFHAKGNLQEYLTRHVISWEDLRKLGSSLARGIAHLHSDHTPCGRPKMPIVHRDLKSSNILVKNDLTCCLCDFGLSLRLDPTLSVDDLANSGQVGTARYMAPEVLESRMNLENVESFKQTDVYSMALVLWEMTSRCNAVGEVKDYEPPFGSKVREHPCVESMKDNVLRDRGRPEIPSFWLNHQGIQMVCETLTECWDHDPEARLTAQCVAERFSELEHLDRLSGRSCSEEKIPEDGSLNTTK
Procedure: Compounds of the disclosure were also assayed by Reaction Biology Corp. using the TGFBR2 RBC assay (enzyme inhibition assay). […] NT refers to not tested.

[2] = system: TGFβ-inducible genes in PANC-1 tumors; test: Intra-tumoral injection of TGFβR2 inhibitors, PANC-1 xenograft, RT-qPCR of tumors; format: in vivo, nude mice; settings: PANC-1, 2 ug intra-tumoral QD5, tumors 4 h after last injection, vs DMSO vehicle
Procedure: (§1) TGFβR2 inhibitors were tested for their ability to alter expression in vivo of a set of genes reported to be regulated by TGFβ, particularly those associated with tumor CAFs. Two million BXCP3 (ATTC) or 5 million PANC-1 (ATTC) cells in Matrigel (Corning Life Sciences) were inoculated into the flanks of nude mice (JAX Labs) and allowed to grow to approximately 100 mm3 in size before sorting into cohorts for treatment. BXPC3 tumors were treated by intra-tumoral injection (IT) of 2 ug QD5 of either compound 211, compound 171 or equal volume of DMSO vehicle while PANC-1 tumors received 2 ug injections QD5 of compound 211 or vehicle control. Four hours after the last injection tumors were removed and processed for RT-qPCR by homogenization in M tubes (Miltenyi Biotec) using Purelink RNA Kit (Ambion) to isolate RNA and Taqman® RNA to CT 1 Step Kit (Applied Biosystems) with a OneStepPlus Thermocycler. Gene specific primers were obtained from ThermoFisher Scientific. […] Data was analyzed and graphed using GraphPad Prism v8.1.0. Statistical difference for gene mRNA expression between TGFβR2 inhibitor and vehicle treated cohorts was determined using multiple T test comparison with discovery (FDR) by the two-stage linear step-up procedure of Benjamini, Krieger and Yekutieli, with Q=5%. Each row was analyzed individually, without assuming a consistent SD.

[3] = system: TGFβ-inducible genes in BXPC3 tumors; test: Intra-tumoral injection of TGFβR2 inhibitors, BXPC3 xenograft, RT-qPCR of tumors; format: in vivo, nude mice; settings: BXPC3, 2 ug intra-tumoral QD5, tumors 4 h after last injection, vs DMSO vehicle
Procedure: as §1

In the case of `CC(CN)Oc1ccc(-c2cnc(N)c(C(=O)Nc3cnccc3N3CCOCC3)n2)cc1` (stereo not shown) [Compound 211], the EC50 [1] is reported as < 50 nM, the IC50 (TGFBR2) is reported as < 50 nM and the “mRNA level of TGFβ-inducible genes in tumors” value [2] is reported as “reduces the mRNA level; also recorded: decreased many TGFβ-inducible gene mRNAs”. For the same compound, the “mRNA level of TGFβ-inducible genes in tumors” value [3] was “reduce the mRNA level; also recorded: reduced the mRNA level of most TGFβ-inducible genes”.
